How the values were obtained:
[1] = molecular target: binding of HIV associated glycoprotein gp120 and the integrin α4β7 (Homo sapiens (Human), UniProt P13612+P26010); assay: ELISA assay of gp120 binding to integrin α4β7; set-up: species or system human (α4β7); HIV-1 ADA strain (gp120); conditions: inhibition of gp120/α4β7 binding, triplicate with two anti-gp120 antibodies, read-out: IC50 a4b7
Text: A sandwich assay was developed to screen for compounds that inhibit the binding of a4b7 to gp120. Without inhibitors, gp120 and a4b7 bind and this complex can be identified by addition of a mouse anti-gp120 mAb (step 3). This a4b7*gp120anti-gp120 mAb complex is then sequestered on the bottom surface of a 96 welled-plate coated with an anti-mouse secondary mAb (step 4). The complex is then detected by addition of a biotinylated primary mAb against a4b7 (step 5) and detected using an HRP-avidin (step 6). A positive binding event is identified by the presence of HPR activity within each well. The addition of an inhibitor (step 2) blocks the binding between gp120 and a4b7 leading to a lack or reduction of HRP activity as shown in steps 2-5 at the bottom of the figure.
Step 1: Prepare the antigen plate • a. Prepare a PBS stock solution containing 1 μM gp120 and 1 μM α4β7 • b. Add a 200 μL aliquot to each well of the antigen plate.
Step 2: Add the inhibitor. • a. Add 20 μL of a 10× stock of the inhibitor in PBS pH 7.2 containing 1% DMSO • b. Incubate at 4° C. for 6 h with shaking. This delivers the antigen plate.
Step 3: Prepare the binding plate. • a. Aspirate each well of the binding plate • b. Wash three times with 200 μL of wash buffer (PBS pH 7.2, containing 0.05% Tween 20). • c. Add 100 μL of a 0.5 μg/mL stock of the mouse anti-gp120 mAb in PBS pH 7.2 • d. Shake for 1 h at 23° C.
Step 4: Sequester the gp120*α4β7 complex. • a. Aspirate each well of the binding plate. • b. Wash three times with 200 μL of wash buffer. • c. Transfer the contents of the antigen plate to the corresponding wells in the binding plate. • d. Shake for 1 h at 23° C.
Step 5: Develop the binding plate. • a. Aspirate each well of the binding plate. • b. Wash three times with 200 μL of wash buffer. • c. Add 100 μL of a 0.1 μg/mL of the rat anti-α4β7 mAb. • d. Shake for 1 h at 37° C. • e. Aspirate each well of the binding plate. • f. Wash three times with 200 μL of wash buffer. • g. Add 100 μL of 0.2 μg/mL solution of the HRP-conjugated strepavidin • h. Shake for 1 h at 37° C. • i. Aspirate each well of the binding plate. • j. Wash three times with 200 μL of wash buffer. • k. Develop using QuantaBlu fluorogenic peroxidase substrate (ThermoScientific) • l. Evaluate the fluorescence output on a HTS7000 plate reader (Perkin Elmer).
The ELISA assay was applied to screen the compounds in the table, below, to further characterize their activity against the binding of HIV associated glycoprotein gp120 and the integrin α4β7.
The five-step assay developed was applied to screen the compounds in the table below. […] The experiments were run in triplicate using two antibodies against gp120.

HIV-1-LAI strain = assay: Antiviral assay in PHA-P-activated PBMC, RT activity in supernatants; assay type: cell-based; conditions: day 7 RT activity
Method: Phytohemagglutinin (PHA)-P-activated PBMC were infected with the reference lymphotropic HIV-1-LAI strain (Wain-Hobson et al., Science, vol. 252, no. 5008, pp. 961-965 (1991)). This virus was amplified in vitro with PHA-P-activated blood mononuclear cells. Viral stocks were titrated using PHA-P-activated PBMC, and 50% tissue culture infectious doses (TCID50) was calculated using Karber's formula. PBMC were pretreated for 30 min by two concentrations of each molecule and infected with 125 TCID50 of this HIV-1 strain. AZT and T20 were used as reference anti-HIV molecule. Molecules were maintained throughout the culture, and cell supernatants were collected at day 7 post-infection and stored at −20° C. Viral replication was measured by quantifying reverse transcriptase (RT) activity in these cell culture supernatants using the Lenti RT activity kit (Cavidi). In parallel, cytotoxicity was evaluated on day 7 in uninfected PHA-P-activated PBMC using the colorimetric methyl-tetrazolium salt assay (MTS/PMS; Promega). Experiments were performed in triplicate and the inhibition of viral replication of the compounds was calculated using SoftMaxPro software (Molecular Devices Inc. CA, USA).
Dilutions in Cell Culture Medium Containing 0.1% DMSO (Final Concentration)

[2] = test system: HIV-1 R9 (CXCR4-tropic strain); assay: Infectivity assay in HeLa reporter cell line (HeLa-CD4-Bgal); assay type: cell-based; conditions: HeLa reporter cells, HIV-1 R9, 36 h
Method: FIG. 2: Experimental outline to evaluate HIV infectivity in a HeLa reporter cell line HIV-1 particles are produced in 293T cells transfected with R9 HIV DNA in the absence of test compounds. Particles are collected, titrated by measuring the amount of p24 antigen and frozen until their use. In the infectivity assay HeLa-CD4-Bgal cells are preincubated for 20 min in the absence or presence of test compounds, and the viral particles are added. Infectivity is monitored with a beta-galactosidase enzymatic reaction 36 hours after infection. Test compounds and virus are left with the cells throughout the entire infection period.
Compounds were evaluated with a HeLa reporter cell line containing the bacterial b-galactosidase gene inserted in the cell chromosome under control of the viral LTR. […] HIV-1 R9 (CXCR4-tropic strain) was used in these experiments to challenge cells. Viruses were first produced by transfection of 293T cells with a plasmid DNA expressing HIV-1. Viral particles were harvested and frozen until use. Infectivity assays were performed incubating cells in the absence or presence of compounds for 20 min before addition of virus. Upon infection, virus and compounds were left with the cells for the entire period of infection (36 h). At that time the extent of infection was evaluated using a luminescent substrate of Bgal. FIG. 2 depicts the experimental outline used to evaluate the anti-HIV activity of lead compounds. Controls with known ARVs include AZT, a reverse-transcriptase inhibitor (RTI), and the HIV integrase inhibitor raltegravir. Controls with vehicle alone are also included

binding of HIV associated glycoprotein gp120 and the integrin α4β7, sequence (P13612 whole entry, looked up): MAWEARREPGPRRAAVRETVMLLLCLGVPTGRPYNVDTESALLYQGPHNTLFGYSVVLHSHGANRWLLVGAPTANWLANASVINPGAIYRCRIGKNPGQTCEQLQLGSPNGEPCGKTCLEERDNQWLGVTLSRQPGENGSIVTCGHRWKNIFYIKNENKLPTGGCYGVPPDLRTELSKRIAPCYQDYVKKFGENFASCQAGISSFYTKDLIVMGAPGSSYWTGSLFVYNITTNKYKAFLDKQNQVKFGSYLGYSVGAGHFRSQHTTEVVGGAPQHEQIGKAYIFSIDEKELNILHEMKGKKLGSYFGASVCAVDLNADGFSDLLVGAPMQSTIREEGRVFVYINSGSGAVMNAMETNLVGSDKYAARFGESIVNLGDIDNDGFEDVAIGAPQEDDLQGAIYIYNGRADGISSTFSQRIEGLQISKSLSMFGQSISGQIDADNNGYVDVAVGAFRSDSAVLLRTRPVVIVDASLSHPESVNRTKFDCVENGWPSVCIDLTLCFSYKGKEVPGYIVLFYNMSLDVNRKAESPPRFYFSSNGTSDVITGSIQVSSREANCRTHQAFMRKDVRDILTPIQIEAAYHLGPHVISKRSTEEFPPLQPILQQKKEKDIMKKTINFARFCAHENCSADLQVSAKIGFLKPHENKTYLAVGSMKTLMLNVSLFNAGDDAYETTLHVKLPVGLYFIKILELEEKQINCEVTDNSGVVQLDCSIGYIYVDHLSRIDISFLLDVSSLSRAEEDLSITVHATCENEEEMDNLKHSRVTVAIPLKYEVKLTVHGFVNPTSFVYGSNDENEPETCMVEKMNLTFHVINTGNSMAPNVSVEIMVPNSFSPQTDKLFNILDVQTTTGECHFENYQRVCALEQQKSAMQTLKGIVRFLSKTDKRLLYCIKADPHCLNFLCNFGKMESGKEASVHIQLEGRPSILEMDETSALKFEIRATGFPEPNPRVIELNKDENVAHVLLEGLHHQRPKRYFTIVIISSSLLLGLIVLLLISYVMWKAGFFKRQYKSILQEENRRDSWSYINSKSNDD
binding of HIV associated glycoprotein gp120 and the integrin α4β7, sequence (P26010 whole entry, looked up): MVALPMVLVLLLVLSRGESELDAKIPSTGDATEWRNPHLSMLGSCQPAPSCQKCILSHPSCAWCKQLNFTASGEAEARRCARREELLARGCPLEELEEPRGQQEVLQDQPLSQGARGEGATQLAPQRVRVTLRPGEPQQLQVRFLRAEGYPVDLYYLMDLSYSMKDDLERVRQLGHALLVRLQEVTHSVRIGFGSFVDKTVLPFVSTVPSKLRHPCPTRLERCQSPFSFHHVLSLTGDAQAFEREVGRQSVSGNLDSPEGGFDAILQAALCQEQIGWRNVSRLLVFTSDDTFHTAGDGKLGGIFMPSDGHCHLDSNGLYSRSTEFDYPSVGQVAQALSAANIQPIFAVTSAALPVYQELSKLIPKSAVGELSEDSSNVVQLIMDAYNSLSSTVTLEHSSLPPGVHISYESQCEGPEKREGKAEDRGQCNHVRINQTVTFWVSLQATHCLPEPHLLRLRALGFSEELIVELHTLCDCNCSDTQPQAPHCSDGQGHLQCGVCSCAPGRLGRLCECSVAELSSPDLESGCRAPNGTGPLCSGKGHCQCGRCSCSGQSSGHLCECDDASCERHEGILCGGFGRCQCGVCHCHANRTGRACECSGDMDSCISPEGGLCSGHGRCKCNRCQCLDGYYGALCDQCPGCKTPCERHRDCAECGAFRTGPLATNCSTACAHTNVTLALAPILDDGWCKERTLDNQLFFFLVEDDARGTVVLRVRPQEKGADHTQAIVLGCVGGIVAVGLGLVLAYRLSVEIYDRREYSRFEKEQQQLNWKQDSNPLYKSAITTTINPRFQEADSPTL

## CC(NC(=O)c1ccccc1NC(=O)CN1C(=O)C(=O)N(Cc2ccccc2)C1=O)c1ccccc1 (stereo not drawn) [Compound 5]
[1]
  IC50: 0.64 nM

## CC(NC(=O)c1ccccc1NC(=O)CN1CCc2ccccc21)c1ccccc1 (stereo not drawn) [Compound 13]
[1]
  IC50: 2.45 nM

## CCC(=O)Nc1cccc(C(=O)Nc2ccccc2C(=O)NCc2ccc(C)cc2)c1 [Compound 12]
[1]
  IC50: 2.19 nM

## O=C(CCc1ccccc1)Nc1ccccc1C(=O)NCc1ccccc1 [Compound 1]
[1]
  IC50: 0.33 nM

## O=C(Nc1ccccc1C(=O)NCc1ccccc1)c1cccc([N+](=O)[O-])c1 [Compound 10]
[1]
  IC50: 1.53 nM

## CC(NC(=O)c1ccccc1NC(=O)CN1C(=O)NC(Cc2ccccc2)C1=O)c1ccccc1 (stereo not drawn) [Compound 15]
[1]
  IC50: 2.8 nM

## enfuvirtide
HIV-1-LAI strain; 0.32 nM
  inhibition of viral replication: −9% ± 3
HIV-1-LAI strain; 1.6 nM
  inhibition of viral replication: 5% ± 15
HIV-1-LAI strain; 8 nM
  inhibition of viral replication: −13% ± 4
HIV-1-LAI strain; 40 nM
  inhibition of viral replication: 100% ± 0
HIV-1-LAI strain; 200 nM
  inhibition of viral replication: 100% ± 0
HIV-1-LAI strain; 1000 nM
  inhibition of viral replication: 100% ± 0
HIV-1-LAI strain
  ED50: 28.9 nM
  ED70: 30 nM
  ED90: 31.7 nM

## Cc1ccc(CNC(=O)c2ccccc2NC(=O)CN2CCN(C(C)C(=O)NC3CC3)CC2)cc1 (stereo not drawn) [Compound 6]
[1]
  IC50: 0.61 nM

## CC1(c2ccc(F)cc2)NC(=O)N(CC(=O)Nc2ccccc2C(=O)NCc2ccccc2)C1=O (stereo not drawn) [Compound 7]
[1]
  IC50: 0.46 nM

## O=C(CN1CCN(Cc2ccsc2)CC1)Nc1ccccc1C(=O)NCc1ccccc1 [Compound 4]
[1]
  IC50: 0.27 nM

## O=C(Cc1ccc(F)cc1)Nc1ccccc1C(=O)NCc1ccccc1 [Compound 2]
[1]
  IC50: 0.89 nM
[2]; 0.008 μM
  Inhibition of HIV infectivity in %: 69.28%
[2]; 0.04 μM
  Inhibition of HIV infectivity in %: 51.94%
[2]; 0.2 μM
  Inhibition of HIV infectivity in %: 62.3%
[2]; 1 μM
  Inhibition of HIV infectivity in %: 60.66%
[2]; 5 μM
  Inhibition of HIV infectivity in %: 13.81%
[2]; 25 μM
  Inhibition of HIV infectivity in %: 2.76%
[2]; 125 μM
  Inhibition of HIV infectivity in %: 4.1%
[2]
  EC50: 3400 nM
  EC90: 30600 nM
HIV-1-LAI strain; 3.2 nM
  inhibition of viral replication: 16% ± 4^
HIV-1-LAI strain; 16 nM
  inhibition of viral replication: −6% ± 22^
HIV-1-LAI strain; 80 nM
  inhibition of viral replication: 4% ± 8
HIV-1-LAI strain; 400 nM
  inhibition of viral replication: 6% ± 16
HIV-1-LAI strain; 2000 nM
  inhibition of viral replication: 22% ± 3^
HIV-1-LAI strain; 10000 nM
  inhibition of viral replication: 87% ± 9^
HIV-1-LAI strain
  ED50: 5590 ± 441 nM
  ED70: 8021 ± 710 nM
  ED90: 9826 ± 246 nM

## CC1CCCCN1CC(=O)Nc1ccccc1C(=O)NCc1ccccc1 (stereo not drawn) [Compound 9]
[1]
  IC50: 1.23 nM

## Cc1ccc(CNC(=O)c2ccccc2NC(=O)CN2CCc3ccccc32)cc1 [Compound 3]
[1]
  IC50: 19.2 nM
[2]; 0.008 μM
  Inhibition of HIV infectivity in %: 67.64%
[2]; 0.04 μM
  Inhibition of HIV infectivity in %: 58.63%
[2]; 0.2 μM
  Inhibition of HIV infectivity in %: 61.6%
[2]; 1 μM
  Inhibition of HIV infectivity in %: 42.22%
[2]; 5 μM
  Inhibition of HIV infectivity in %: 12.81%
[2]; 25 μM
  Inhibition of HIV infectivity in %: 2.39%
[2]; 125 μM
  Inhibition of HIV infectivity in %: 0.19%
[2]
  EC50: 1690 nM
  EC90: 15200 nM

## Cc1cn([C@H]2C[C@H](N=[N+]=[N-])[C@@H](CO)O2)c(=O)[nH]c1=O [AZT, Zidovudine]
HIV-1-LAI strain; Human immunodeficiency virus 1, 168 h, 0.32 nM, read-out: inhibition of viral replication
  inhibition at 0.00032 µM: 16%
HIV-1-LAI strain; Human immunodeficiency virus 1, 168 h, 1.6 nM, read-out: inhibition of viral replication
  inhibition at 0.0016 µM: 59%
HIV-1-LAI strain; Human immunodeficiency virus 1, 168 h, 8 nM, read-out: inhibition of viral replication
  inhibition at 0.008 µM: 95%
HIV-1-LAI strain; Human immunodeficiency virus 1, 168 h, 40 nM, read-out: inhibition of viral replication
  inhibition at 0.04 µM: 100%
HIV-1-LAI strain; Human immunodeficiency virus 1, 168 h, 200 nM, read-out: inhibition of viral replication
  inhibition at 0.2 µM: 100%
HIV-1-LAI strain; Human immunodeficiency virus 1, 168 h, 1000 nM, read-out: inhibition of viral replication
  inhibition at 1 µM: 100%
HIV-1-LAI strain
  ED50: 1.3 nM
  ED70: 2.5 nM
  ED90: 6.6 nM

— patent US9610264B2, “Compounds for the treatment and prevention of retroviral infections” (KFLP Biotech, LLC, priority 2012, dated 2017)
